In PMC3157558, “Huprines as a new family of dual acting trypanocidal–antiplasmodial agents” (Bioorganic & Medicinal Chemistry, 2011):
Where a name gives a salt, the structure may show the parent alone. Read-outs that look alike come from different tables or passages of the source.

What was measured:
[1] = test system: bloodstream form T. brucei; assay: microbe, parasite or virus in culture; assay type: cell-based, Trypanosoma brucei; conditions: for SI (selectivity index, ratio of cytotoxic to trypanocidal IC50 values): IC50 against L6 cells/IC50 against T. brucei
Procedure: (§1) Trypanocidal activity was assessed by growing parasites for 48 h in the presence of various drug concentrations and determining the levels which inhibited growth by 50% (IC50) and 90% (IC90). In the case of untreated cultures, cell densities increased from 0.25 × 10^5 to 1 × 10^6 over this period. Cell densities at each drug concentration were determined using a hemocytometer and drug sensitivity was expressed as a percentage of growth of control cells.

[2] = test system: rat skeletal myoblast L6 cells; assay: Cytotoxic activity against rat skeletal myoblast L6 cells (Alamar Blue); assay type: cell-based; conditions: 6 days incubation, mean of triplicate ± SEM
Procedure: Cytotoxicity against mammalian cells was assessed using microtitre plates following a described procedure.[41] Briefly, L6 cells (a rat skeletal muscle line) were seeded at 1 × 10^4 ml^−1 in 200 μL of growth medium containing different compound concentrations. The plates were incubated for 6 days at 37 °C and 20 μL Alamar Blue (Biosource UK Ltd) was then added to each well. After a further 8 h incubation, the fluorescence was determined using a Gemini fluorescent plate reader (Molecular Devices).

[3] = in vitro; assay type: cell-based, Trypanosoma brucei; conditions: 427, rat
Procedure: as §1

[4] = test system: acetylcholinesterase; parameters: method as in PMID 10464010, PMID 11101357; conditions: cited from earlier work
[5] = test system: memory and learning activities; conditions: cited from earlier work
[6] = test system: Alzheimer's disease related brain neuropathology; parameters: method as in PMID 20689242; conditions: transgenic mouse model; cited from earlier work
[7] = Trypanosoma brucei, bloodstream form T. brucei, pH 7.4, 48 h growth, concentration inhibiting growth by 90%, mean of triplicate ± SEM, read-out: T. brucei IC90
[8] = Trypanosoma brucei, bloodstream form T. brucei, pH 7.4, 48 h growth, mean of triplicate experiments ± SEM, read-out: T. brucei IC50
[9] = bloodstream form T. brucei, pH 7.4, 48 h growth, concentration inhibiting growth by 90%, mean of triplicate ± SEM, read-out: T. brucei IC90
[10] = bloodstream form T. brucei, pH 7.4, 48 h growth, mean of triplicate experiments ± SEM, read-out: T. brucei IC50
[11] = Trypanosoma brucei, 48 h, pH 7.4, read-out: T. brucei IC50
[12] = Trypanosoma brucei, 48 h, pH 7.4, read-out: T. brucei IC90

Compound	IC90 [1, 7]	IC50 [1, 8]	IC90 [1, 9]	IC50 [1, 10]	SI (selectivity index, ratio of cytotoxic to trypanocidal IC50 values) [1]	IC50 [2]	other results
C=CCC1=CC2Cc3nc4ccccc4c(N)c3C(C1)C2 (stereo not drawn) [huprine 6]	8.52 ± 0.19 µM	4.08 ± 0.45 µM	–	–	–	–	–
CC(C)C1=CC2Cc3nc4cccc(F)c4c(N)c3C(C1)C2 (stereo not drawn) [huprine 10, 12-Amino-1-fluoro-6,7,10,11-tetrahydro-9-isopropyl-7,11-methanocycloocta[b]quinoline hydrochloride]	–	–	7.75 ± 0.23 µM	2.6 ± 0.55 µM	–	–	–
CC1=CC2Cc3nc4cc(C)ccc4c(N)c3C(C1)C2 (stereo not drawn) [huprine 17]	–	–	3.31 ± 0.59 µM	1.04 ± 0.05 µM	19.2	20 ± 0.5 µM	–
CC1=CC2Cc3nc4cc(Cl)ccc4c(N)c3C(C1)C2 (stereo not drawn) [huprine 3]	2.94 ± 0.2 µM	0.61 ± 0.03 µM	–	–	–	–	selectivity ratio [3]: 12.8; IC50 ([2]; 144 h): 7.8 ± 0.47 µM; acetylcholinesterase inhibitory potency (rank in words) [4]: most potent acetylcholinesterase inhibitors
C=CCC1=CC2Cc3nc4cccc(F)c4c(N)c3C(C1)C2 (stereo not drawn) [huprine 11, 9-Allyl-12-amino-1-fluoro-6,7,10,11-tetrahydro-7,11-methanocycloocta[b]quinoline hydrochloride]	–	–	–	–	–	–	IC50 [1, 11]: 3.62 ± 0.54 µM; IC90 [1, 12]: 8.73 ± 0.69 µM
CC(C)C1=CC2Cc3nc4ccccc4c(N)c3C(C1)C2 (stereo not drawn) [huprine 5]	–	–	–	–	–	–	IC50 [1, 11]: 2.06 ± 0.44 µM; IC90 [1, 12]: 4.76 ± 0.82 µM
CCC1=CC2Cc3nc4cccc(Cl)c4c(N)c3C(C1)C2 (stereo not drawn) [huprine 18]	–	–	3.11 ± 0.29 µM	1.36 ± 0.19 µM	15.7	21.3 ± 1.3 µM	–
CC(C)C1=CC2Cc3nc4cc(Cl)ccc4c(N)c3C(C1)C2 (stereo not drawn) [huprine 8, 12-Amino-3-chloro-6,7,10,11-tetrahydro-9-isopropyl-7,11-methanocycloocta[b]quinoline hydrochloride]	–	–	4.34 ± 0.03 µM	2.45 ± 0.37 µM	–	–	–
CCC1=CC2Cc3nc4cccc(C)c4c(N)c3C(C1)C2 (stereo not drawn) [huprine 20]	–	–	8.86 ± 0.15 µM	5.28 ± 1.11 µM	–	–	–
CC(C)(C)C1=CC2Cc3nc4ccccc4c(N)c3C(C1)C2 (stereo not drawn) [huprine 14]	–	–	3.05 ± 0.03 µM	0.88 ± 0.26 µM	13.2	11.6 ± 0.5 µM	acetylcholinesterase inhibitory potency (rank in words) [4]: least potent acetylcholinesterase inhibitors
C=CCC1=CC2Cc3nc4cc(Cl)ccc4c(N)c3C(C1)C2 (stereo not drawn) [huprine 9, 9-Allyl-12-amino-3-chloro-6,7,10,11-tetrahydro-7,11-methanocycloocta[b]quinoline hydrochloride]	2.87 ± 0.18 µM	0.76 ± 0.07 µM	–	–	–	–	selectivity ratio ([3]; IC50 against L6 cells/IC50 against T. brucei, read-out: SI (selectivity index, ratio of cytotoxic to trypanocidal IC50 values)): 16.3; IC50 ([2]; 144 h): 12.4 ± 0.4 µM
CCC1=CC2Cc3nc4cc(Cl)ccc4c(N)c3[C@@H](C1)C2 [huprine 4]	1.76 ± 0.2 µM	0.84 ± 0.06 µM	–	–	–	–	IC50 ([2]; 144 h): 12.5 ± 0.4 µM; adverse effects in behavioural studies ([5]; behavioural studies in mice): did not induce adverse effects; effect on memory and learning activities ([5]; middle aged mice): ameliorate memory and learning activities; effect on Alzheimer's disease related brain neuropathology [6]: ameliorate; acetylcholinesterase inhibitory potency (rank in words) [4]: most potent acetylcholinesterase inhibitors
CCC1=CC2Cc3nc4ccccc4c(N)c3C(C1)C2 (stereo not drawn) [huprine 12]	–	–	4.53 ± 0.16 µM	1.29 ± 0.16 µM	12.1	15.6 ± 1.6 µM	–
